Data as given in ChEMBL document CHEMBL5154795, “Exploring the structure-activity relationships of diphenylurea as an antibacterial scaffold active against methicillin- and vancomycin-resistant Staphylococcus aureus” (Eur J Med Chem, 2022).
In brackets after ≈: the same amount, converted by molar mass. Activity calls are given as the source filed them. The rule behind the calls is not given here.

Key:
Staphylococcus aureus [1] = assay: Antibacterial activity against methicillin-resistant Staphylococcus aureus USA300 incubated for 18 to 20 hrs by broth microdilution method; assay type: functional; settings: time 18-20 hrs
Staphylococcus aureus [2] = assay: Induction of drug resistance in methicillin-resistant Staphylococcus aureus USA400 NRS 123 assessed as fold increase in MIC measured after 15 passages by broth microdilution assay; assay type: functional
Staphylococcus aureus [3] = assay: Antibacterial activity against methicillin-sensitive Staphylococcus aureus ATCC 6538 incubated for 18 to 20 hrs by broth microdilution method; assay type: functional; settings: time 18-20 hrs
Staphylococcus aureus [4] = assay: Antibacterial activity against methicillin-sensitive Staphylococcus aureus NRS 107 incubated for 18 to 20 hrs by broth microdilution method; assay type: functional; settings: time 18-20 hrs
Staphylococcus aureus [5] = assay: Antibacterial activity against methicillin-resistant Staphylococcus aureus NRS 119 incubated for 18 to 20 hrs by broth microdilution method; assay type: functional; settings: time 18-20 hrs
Staphylococcus aureus [6] = assay: Antibacterial activity against methicillin-resistant Staphylococcus aureus NRS 123 (USA400) incubated for 18 to 20 hrs by broth microdilution method; assay type: functional; settings: time 18-20 hrs
Staphylococcus aureus [7] = assay: Antibacterial activity against methicillin-resistant Staphylococcus aureus NRS 384 (USA300) incubated for 18 to 20 hrs by broth microdilution method; assay type: functional; settings: time 18-20 hrs
Staphylococcus aureus [8] = assay: Antibacterial activity against methicillin-resistant Staphylococcus aureus NRS 385 (USA500) incubated for 18 to 20 hrs by broth microdilution method; assay type: functional; settings: time 18-20 hrs
Staphylococcus aureus [9] = assay: Antibacterial activity against methicillin-resistant Staphylococcus aureus NRS 386 (USA700) incubated for 18 to 20 hrs by broth microdilution method; assay type: functional; settings: time 18-20 hrs
Staphylococcus aureus [10] = assay: Antibacterial activity against Vancomycin-resistant Staphylococcus aureus 9 incubated for 18 to 20 hrs by broth microdilution method; assay type: functional; settings: time 18-20 hrs
Staphylococcus aureus [11] = assay: Antibacterial activity against Vancomycin-resistant Staphylococcus aureus 10 incubated for 18 to 20 hrs by broth microdilution method; assay type: functional; settings: time 18-20 hrs
Staphylococcus aureus [12] = assay: Antibacterial activity against Vancomycin-resistant Staphylococcus aureus 12 incubated for 18 to 20 hrs by broth microdilution method; assay type: functional; settings: time 18-20 hrs
[13] = system: Staphylococcus epidermidis; assay: Antibacterial activity against Staphylococcus epidermidis NRS 101 incubated for 18 to 20 hrs by broth microdilution method; assay type: functional; settings: time 18-20 hrs
[14] = Cytotoxicity against human Caco-2 cells assessed as cell viability at upto 128 ug/ml incubated for 24 hrs by MTS assay relative to control; assay type: toxicity, cell-based; settings: up to 128 µg/mL, read-out: Activity
[15] = Cytotoxicity against human HaCaT cells assessed as cell viability upto 128 ug/ml incubated for 24 hrs by MTS assay relative to control; assay type: toxicity, cell-based; settings: up to 128 µg/mL, read-out: Activity
Staphylococcus aureus [16] = assay: Antibacterial activity against methicillin-resistant Staphylococcus aureus USA400 NRS 123 assessed as time of post-antibiotic effect at 5 times MIC incubated for 2 hrs followed by compound washout and measured every single 1 hr; assay type: functional
Caco-2 [17] = assay: Cytotoxicity against human Caco-2 cells assessed as reduction in cell viability at 64 ug/ml incubated for 24 hrs by MTS assay; assay type: toxicity, cell-based; settings: caco-2, 24 h, dose 64 µg/ml
[18] = Cytotoxicity against human HaCaT cells assessed as cell viability at 64 ug/ml incubated for 24 hrs by MTS assay relative to control; assay type: toxicity, cell-based; settings: at 64 µg/mL, read-out: Activity
[19] = Hemolytic activity in rabbit erythrocytes at 32 ug/ml incubated for 30 min by absorbance based analysis relative to control; assay type: toxicity, cell-based, Oryctolagus cuniculus, Erythrocyte; settings: at 32 µg/mL, read-out: Activity
[20] = Hemolytic activity in rabbit erythrocytes at 64 ug/ml incubated for 30 min by absorbance based analysis relative to control; assay type: toxicity, cell-based, Oryctolagus cuniculus, Erythrocyte; settings: at 64 µg/mL, read-out: Activity
Erythrocyte = assay: Hemolytic activity in rabbit erythrocytes at 128 ug/ml incubated for 30 min by absorbance based analysis; assay type: toxicity, cell-based, Oryctolagus cuniculus; settings: 0.5 h, dose 128 µg/ml
Staphylococcus aureus [21] = assay: Potentiation of vancomycin-induced antibacterial activity against vancomycin-resistant Staphylococcus aureus 1 assessed as vancomycin MIC at 0.5 times MIC incubated for 18 to 20 hrs by broth microdilution method; assay type: functional; settings: time 18-20 hrs
Staphylococcus aureus [22] = assay: Potentiation of vancomycin-induced antibacterial activity against vancomycin-resistant Staphylococcus aureus 2 assessed as vancomycin MIC at 0.5 times MIC incubated for 18 to 20 hrs by broth microdilution method; assay type: functional; settings: time 18-20 hrs
Staphylococcus aureus [23] = assay: Potentiation of vancomycin-induced antibacterial activity against vancomycin-resistant Staphylococcus aureus 3 assessed as vancomycin MIC at 0.5 times MIC incubated for 18 to 20 hrs by broth microdilution method; assay type: functional; settings: time 18-20 hrs
Staphylococcus aureus [24] = assay: Potentiation of vancomycin-induced antibacterial activity against vancomycin-resistant Staphylococcus aureus 3b assessed as vancomycin MIC at 0.5 times MIC incubated for 18 to 20 hrs by broth microdilution method; assay type: functional; settings: time 18-20 hrs
Staphylococcus aureus [25] = assay: Potentiation of vancomycin-induced antibacterial activity against vancomycin-resistant Staphylococcus aureus 9 assessed as vancomycin MIC at 0.5 times MIC incubated for 18 to 20 hrs by broth microdilution method; assay type: functional; settings: time 18-20 hrs
Staphylococcus aureus [26] = assay: Potentiation of vancomycin-induced antibacterial activity against vancomycin-resistant Staphylococcus aureus 10 assessed as vancomycin MIC at 0.5 times MIC incubated for 18 to 20 hrs by broth microdilution method; assay type: functional; settings: time 18-20 hrs
Staphylococcus aureus [27] = assay: Potentiation of vancomycin-induced antibacterial activity against vancomycin-resistant Staphylococcus aureus 12 assessed as vancomycin MIC at 0.5 times MIC incubated for 18 to 20 hrs by broth microdilution method; assay type: functional; settings: time 18-20 hrs
Staphylococcus aureus [28] = assay: Potentiation of vancomycin-induced antibacterial activity against vancomycin-resistant Staphylococcus aureus 13 assessed as vancomycin MIC at 0.5 times MIC incubated for 18 to 20 hrs by broth microdilution method; assay type: functional; settings: time 18-20 hrs
Staphylococcus aureus [29] = assay: Antibacterial activity against methicillin-resistant Staphylococcus aureus USA300 infected in BALB/c mouse assessed as recovery of body weight loss administered 72 hrs post infection topically twice daily for 4 days; assay type: functional, organism-based; settings: time 4.0 day
Staphylococcus aureus [30] = assay: Antibacterial activity against methicillin-resistant Staphylococcus aureus USA300 infected in BALB/c mouse assessed as reduction in bacterial count administered 72 hrs post infection topically twice daily for 4 days; assay type: functional, organism-based; settings: time 4.0 day
Staphylococcus aureus [31] = assay: Antibacterial activity against methicillin-resistant Staphylococcus aureus USA300 infected in BALB/c mouse assessed as reduction in bacterial count in spleen administered 72 hrs post infection topically twice daily for 4 days; assay type: functional, organism-based; settings: time 4.0 day
Caco-2 [32] = assay: Cytotoxicity against human Caco-2 cells at 128 ug/ml incubated for 24 hrs by MTS assay; assay type: toxicity, cell-based; settings: caco-2, 24 h, dose 128 µg/ml

## C/C(=N\NC(=N)N)c1ccc(NC(=O)Nc2ccc(-c3ccsc3)cc2)cc1
Staphylococcus aureus [1]
  MIC: 4 µg/mL (≈ 10.2 µM)

## C/C(=N\NC(=N)N)c1ccc(NC(=O)Nc2ccc(-c3cc4ccccc4o3)cc2)cc1
Staphylococcus aureus [1]
  MIC: 4 µg/mL (≈ 9.38 µM)

## C/C(=N\NC(=N)N)c1ccc(NC(=O)Nc2ccc(-c3ccc(C)cc3)cc2)cc1
Staphylococcus aureus [1]
  MIC: 4 µg/mL (≈ 9.99 µM)

## C/C(=N\NC(=N)N)c1ccc(NC(=O)Nc2ccc(-c3ccccn3)cc2)cc1
Staphylococcus aureus [1]
  MIC: 4 µg/mL (≈ 10.3 µM)

## C/C(=N\NC(=N)N)c1ccc(NC(=O)Nc2ccc(-c3cccc(C)c3)cc2)cc1
Staphylococcus aureus [1]
  MIC: 4 µg/mL (≈ 9.99 µM)

## C/C(=N\NC(=N)N)c1ccc(NC(=O)Nc2ccc(-c3ccoc3)cc2)cc1
Staphylococcus aureus [1]
  MIC: 4 µg/mL (≈ 10.6 µM)

## C/C(=N\NC(=N)N)c1ccc(NC(=O)Nc2ccc(-c3cccnc3)cc2)cc1
Staphylococcus aureus [1]
  MIC: 4 µg/mL (≈ 10.3 µM)

## C/C(=N\NC(=N)N)c1ccc(NC(=O)Nc2ccc(C3CCC3)cc2)cc1
Staphylococcus aureus [1]
  MIC: ≥ 64 µg/mL

## C/C(=N\NC(=N)N)c1ccc(NC(=O)Nc2ccc(-c3ccccc3C)cc2)cc1
Staphylococcus aureus [1]
  MIC: 4 µg/mL (≈ 9.99 µM)

## C/C(=N\NC(=N)N)c1ccc(NC(=O)Nc2ccc(-c3cccs3)cc2)cc1
Staphylococcus aureus [2]
  fold change (FC): 1
Staphylococcus aureus [1]
  MIC: 4 µg/mL (≈ 10.2 µM)
Staphylococcus aureus [3]
  MIC: 4 µg/mL (≈ 10.2 µM)
Staphylococcus aureus [4]
  MIC: 2 µg/mL (≈ 5.1 µM)
Staphylococcus aureus [5]
  MIC: 16 µg/mL (≈ 40.8 µM)
Staphylococcus aureus [6]
  MIC: 4 µg/mL (≈ 10.2 µM)
Staphylococcus aureus [7]
  MIC: 4 µg/mL (≈ 10.2 µM)
Staphylococcus aureus [8]
  MIC: 8 µg/mL (≈ 20.4 µM)
Staphylococcus aureus [9]
  MIC: 4 µg/mL (≈ 10.2 µM)
Staphylococcus aureus [10]
  MIC: 8 µg/mL (≈ 20.4 µM)
Staphylococcus aureus [11]
  MIC: 16 µg/mL (≈ 40.8 µM)
Staphylococcus aureus [12]
  MIC: 8 µg/mL (≈ 20.4 µM)
[13]
  MIC: 8 µg/mL (≈ 20.4 µM)
[14]
  viability at 24 h: 100%
[15]
  viability at 24 h: 100%
Staphylococcus aureus [16]
  Time: 3 h

## C/C(=N\NC(=N)N)c1ccc(NC(=O)Nc2ccc(/C=C/CC(C)C)cc2)cc1
Caco-2 [17]
  Activity: Non-Toxic
Staphylococcus aureus [3]
  MIC: 4 µg/mL (≈ 10.2 µM)
Staphylococcus aureus [4]
  MIC: 4 µg/mL (≈ 10.2 µM)
Staphylococcus aureus [5]
  MIC: 4 µg/mL (≈ 10.2 µM)
Staphylococcus aureus [6]
  MIC: 4 µg/mL (≈ 10.2 µM)
Staphylococcus aureus [7]
  MIC: 2 µg/mL (≈ 5.1 µM)
Staphylococcus aureus [8]
  MIC: 4 µg/mL (≈ 10.2 µM)
Staphylococcus aureus [9]
  MIC: 4 µg/mL (≈ 10.2 µM)
Staphylococcus aureus [10]
  MIC: 4 µg/mL (≈ 10.2 µM)
Staphylococcus aureus [11]
  MIC: 8 µg/mL (≈ 20.4 µM)
Staphylococcus aureus [12]
  MIC: 8 µg/mL (≈ 20.4 µM)
[13]
  MIC: 4 µg/mL (≈ 10.2 µM)
[18]
  viability at 24 h, 64 ug/ml: 100%
[19]
  hemolysis at 0.5 h, 32 ug/ml: < 10%
[20]
  hemolysis at 0.5 h, 64 ug/ml: 50%
Erythrocyte
  Activity: Toxic
Staphylococcus aureus [16]
  Time: 5 h
Staphylococcus aureus [21]
  MIC: 4 µg/mL
Staphylococcus aureus [22]
  MIC: 4 µg/mL
Staphylococcus aureus [23]
  MIC: 2 µg/mL
Staphylococcus aureus [24]
  MIC: 8 µg/mL
Staphylococcus aureus [25]
  MIC: 16 µg/mL
Staphylococcus aureus [26]
  MIC: 16 µg/mL
Staphylococcus aureus [27]
  MIC: 64 µg/mL
Staphylococcus aureus [28]
  MIC: 16 µg/mL
Staphylococcus aureus [29]
  Activity: Active
Staphylococcus aureus [30]
  Activity: Active
Staphylococcus aureus [31]
  Activity: Active
Caco-2 [32]
  Activity: Toxic

## C/C(=N\NC(=N)N)c1ccc(NC(=O)Nc2ccc(-c3cccn3C)cc2)cc1
Staphylococcus aureus [1]
  MIC: 4 µg/mL (≈ 10.3 µM)
